According to ChEMBL document CHEMBL1130317 (J Med Chem, 1997):

Assays:
[1] = biological target: Aldo-keto reductase family 1 member B1 (Rattus norvegicus, UniProt P07943); experiment: Inhibitory activity against rat lens aldose reductase(AR).
[2] = biological target: T1, Aldo-keto reductase family 1 member A1 (Rattus norvegicus, UniProt P51635); experiment: In vitro inhibitory activity against rat kidney aldehyde reductase(ALR).
T1 sequence (P51635 whole entry): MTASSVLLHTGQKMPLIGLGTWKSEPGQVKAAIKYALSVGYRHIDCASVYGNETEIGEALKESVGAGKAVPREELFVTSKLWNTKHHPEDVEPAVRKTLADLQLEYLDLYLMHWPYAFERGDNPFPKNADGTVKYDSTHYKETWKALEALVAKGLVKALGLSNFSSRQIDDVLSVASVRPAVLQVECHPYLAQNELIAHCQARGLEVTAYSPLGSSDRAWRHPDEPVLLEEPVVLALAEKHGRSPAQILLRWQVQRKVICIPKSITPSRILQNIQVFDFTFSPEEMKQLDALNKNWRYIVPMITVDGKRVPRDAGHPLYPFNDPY

Rattus norvegicus = species: Rattus norvegicus; experiment: Ratio of IC50 value of rat kidney ALR to rat lens AR; type: tissue-based; settings: Lens of camera-type eye
[3] = biological target: T2, Aldo-keto reductase family 1 member A1 (Rattus norvegicus) (UniProt P51635); experiment: Percent inhibition of rat kidney Aldehyde reductase (ALR) at 1x10E-4 M
T2 sequence (whole entry): T1 sequence (P51635 whole entry)

[4] = biological target: Aldo-keto reductase family 1 member B1 (Rattus norvegicus) (UniProt P07943); experiment: Inhibitory activity against rat lens aldose reductase(AR) at the concentration of 1*10e-7 M

| SMILES | IC50 [1] [µM] | IC50 [2] [µM] | inhibition [3] [%] | inhibition [4] [%] | Ratio (Rattus norvegicus) |
| --- | --- | --- | --- | --- | --- |
| O=C(O)CN1CC(=O)N(Cc2ccc(Cl)c([N+](=O)[O-])c2)C1=O | 0.024 | > 100 | 1.6 | – | > 4170 |
| O=C(O)CN1C(=O)C(=O)N(Cc2nc3cc(Cl)ccc3s2)C1=O | 0.015 | 58 | – | – | 3870 |
| O=C(O)CN1CC(=O)N(Cc2nc3c(Cl)cccc3s2)C1=O | 0.062 | > 100 | 37 | – | > 1610 |
| O=C(O)CN1C(=O)C(=O)N(Cc2nc3c(Cl)cccc3s2)C1=O | 0.012 | 72 | – | – | 6000 |
| O=C(O)Cn1ccc(=O)n(Cc2nc3c(Cl)cccc3s2)c1=O | 0.011 | > 100 | 39.3 | – | > 9090 |
| O=C(O)Cn1ccc(=O)n(Cc2ccc(Cl)c([N+](=O)[O-])c2)c1=O | 0.025 | > 100 | 26.5 | – | > 4000 |
| O=C(O)Cn1ccc(=O)n(Cc2nc3cc(Cl)ccc3s2)c1=O | 0.0057 | > 100 | 32 | – | > 17500 |
| O=C(O)CN1CC(=O)N(Cc2nc3cc(Cl)ccc3s2)C1=O | – | – | – | 47.5 | – |

Further lines, with some results ahead:

| IC50 [1] [µM] | IC50 [2] [µM] | inhibition [3] [%] | inhibition [4] [%] | SMILES | Ratio (Rattus norvegicus) |
| --- | --- | --- | --- | --- | --- |
| 0.025 | 28 | – | – | O=C(O)CN1C(=O)C(=O)N(Cc2cccc([N+](=O)[O-])c2)C1=S | 1120 |
| – | > 100 | 11.8 | 27.8 | O=C(O)Cn1c(=O)ccn(Cc2cccc([N+](=O)[O-])c2)c1=O | – |
| – | – | 37.3 | – | O=C(O)CN1C(=O)C(=O)N(Cc2cccc([N+](=O)[O-])c2)C1=O | – |
| 0.034 | > 100 | 17.4 | – | O=C(O)Cn1ccc(=O)n(Cc2cccc([N+](=O)[O-])c2)c1=O | > 2940 |
| 0.032 | 58 | – | – | C=C1C(=O)N(CC(=O)O)C(=O)N1Cc1cccc([N+](=O)[O-])c1 | 1810 |
| – | > 100 | – | 4.6 | O=C(O)CN1C(=O)CN(Cc2cccc([N+](=O)[O-])c2)C1=O | – |
| – | > 100 | 12.4 | 17.7 | C=C1N(CC(=O)O)C(=O)C(=O)N1Cc1cccc([N+](=O)[O-])c1 | – |
| – | > 100 | 33.5 | 1.5 | O=C(O)CN1C(=O)CC(=O)N(Cc2cccc([N+](=O)[O-])c2)C1=O | – |
| – | > 100 | 11 | 44 | O=C(O)CN1C(=O)N(Cc2cccc([N+](=O)[O-])c2)C(=O)C1O (configuration not stated) | – |
| – | > 100 | 3.8 | 38.2 | O=C(O)CN1CC(=O)N(Cc2cccc([N+](=O)[O-])c2)C1=O | – |
| – | > 100 | 19 | 5 | O=C(O)CN1C(=O)C(O)N(Cc2cccc([N+](=O)[O-])c2)C1=O (configuration not stated) | – |
| 0.016 | > 100 | 39.5 | – | O=C(O)CN1C(=O)C(=O)N(Cc2ccc(Cl)c([N+](=O)[O-])c2)C1=O | > 6250 |
